Test in all cases: DTP human tumour cell line panel, 48 h
In test [1] the test system is EKVX NSCLC.
Test [2] has as its system KM12 colon.
For test [3], the system named is SF-295 CNS.
Test [4] deals with K-562 leukemia.
For test [5], the system named is NCI-H226 lung.
In test [6] the test system is HS 578T breast.
Test [7] has as its system SK-MEL-28 melanoma.
The test system of test [8] is MALME-3M melanoma.
The subject of test [9] is BT-549 breast.
The subject of test [10] is NCI-H460 lung.

The results in this text go back to PubChem BioAssay (NCI).

Where “and” joins values, the source holds several entries; their conditions need not be identical. Equal values may be shown once.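 Assay format: 96-well plates, 48-hour exposure. GI50 is the concentration that inhibits growth by half. TGI is the concentration that stops growth completely.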 *1 amine or outer side, *2 acyl side, *3 side chain or, on linkers, in order; H or OH if unused. Where a SMILES comes first, the peptide text is derived from it. Bridges are numbered along the chain shown (N, C = ends). [ ]: non-standard residue; d: D form. ξ: configuration not given here. X4 = CCC(C)C(N[*:1])C(O)CC(=O)O[C@H](C(=O)C(C)C(=O)[*:2])C(C)C; NMeY = CN[C@@H](Cc1ccc(O)cc1)C(=O)O; X9 = O=C([C@@H]1CC(O)CN1[*:1])[*:2]; ξNMeL = CNC(CC(C)C)C(=O)O; ξT = CC(O)C(N)C(=O)O

What is called TGI is the concentration giving total growth inhibition. Low readings indicate more potent growth arrest, high ones less potent growth arrest. A word on the GI50: it is the concentration giving 50% growth inhibition. In the case of `CCC(C)C1NC(=O)C(NC(=O)C(CC(C)C)N(C)C(=O)[C@@H]2CC(O)CN2)C(C)OC(=O)[C@H](Cc2ccc(OC)cc2)N(C)C(=O)[C@@H]2CCCN2C(=O)[C@H](CC(C)C)NC(=O)C(C)C(=O)[C@H](C(C)C)OC(=O)CC1O` (stereo not given in full) (H-[X9][ξNMeL][ξT][X4]LP[NMeY](Me); ester 3-C), the TGI in [1] was 0.266 µM; in [2] it was 0.105 µM; in [3], 0.286 µM and 0.304 µM; in test [4], 114 nM and 131 nM; in test [5], 0.0804 µM and 0.355 µM; in test [6], 0.0555 µM and 0.0238 µM. Moreover, the TGI in test [7] was 0.0194 µM and 0.106 µM; in test [8], 0.0989 µM and 0.139 µM; in test [9], 0.0575 µM and 0.0866 µM; in [10], 0.134 µM and 1.1 µM. Moreover, the GI50 in test [3] is 16.6 nM; in [5], 30.2 nM.
As to `CCCCCCCCCCCCCCCCC(C(=O)O)C(O)(CC(=O)O)C(=O)O` (stereo not given), the TGI was 39.3 µM in test [1]; 37.3 µM in [2]; 35.5 µM in test [3]; > 100000 nM in [4]; 47.3 µM in test [5]; 58.6 µM in [6]. Also, the TGI is 59.1 µM in [7], > 100 µM in [8], 51.3 µM in [9] and 46.6 µM in test [10].
With `O=C(O)CC(Cc1ccc2c(c1)OCO2)C(=O)O` (stereo not given), the TGI is > 100 µM in test [1]; > 100 µM in test [2]; > 100 µM in [3]; > 100000 nM in [4]; > 100 µM in test [5]; > 100 µM in test [6]. In addition, the TGI in test [7], in [8], in test [9] and in test [10] was > 100 µM in each case.
As for `Clc1nc(Cl)c2ncn(C/C=C\Cn3cnc4c(Cl)nc(Cl)nc43)c2n1`, the GI50 is 1.97 µM in test [1]; 1.71 µM in test [2]; 1540 nM in test [3]; 3.1 µM in test [4]; 2530 nM in test [5]; 3.01 µM in test [6]. The GI50 in [7] is 1.94 µM; in [8], 2.34 µM; in test [9] it was 2.03 µM; in [10], 3.24 µM. Also, the TGI in test [1] was 3.76 µM; in [2], 3.2 µM; in test [3], 3.06 µM; in [4] it was > 100000 nM; in test [5], 6.23 µM; in [6], 6.12 µM. Further, the TGI in test [7] was found to be 3.68 µM; in test [8], 4.26 µM; in test [9] it was 5.01 µM; in test [10], 11.2 µM.
Consider `Nc1nc(-n2cccn2)nc(-n2cccn2)c1Br`, for which the GI50 was > 100 µM in [1]; > 100 µM in test [2]; > 100000 nM in [3]; > 100 µM in test [4]; > 100000 nM in [5]; > 100 µM in [6]. The GI50 in [7], in test [8], in test [9] and in test [10] was > 100 µM throughout. Besides, the TGI in test [1] is > 100 µM; in test [2] it was > 100 µM; in test [3], > 100 µM; in [4], > 100000 nM; in test [5] it was > 100 µM; in test [6], > 100 µM. Besides, the TGI in test [7], in test [8], in test [9] and in test [10] was > 100 µM in each case.
For the molecule `CCCCCCC(C)CC(CCCCCC)NCCOC(=O)c1ccc([N+](=O)[O-])cc1` (stereo not given), the TGI is 27.2 µM and 21.4 µM in test [1]; 27.9 µM and 23.7 µM in test [2]; 25.3 µM and 31.3 µM in [3]; 1840 nM in test [4]; 29.4 µM and 28.6 µM in test [5]; 41.5 µM and 41.1 µM in test [6]. The TGI in test [7] was 27 µM; in [8], 28 µM and 25.7 µM; in test [9], 31.6 µM and 30.5 µM; in test [10], 29.4 µM and 18.4 µM. In [10], the GI50 was 13.7 µM and 5.28 µM.
Take `COc1cc2c(/C=C3/C(=O)Nc4ccccc43)c(Cl)n(Cc3ccccc3)c2cc1C`: the GI50 in test [1] is > 100 µM; in test [2], > 100 µM; in [3] it was > 100000 nM; in [5] it was > 100000 nM; in [6], > 100 µM; in test [8], > 100 µM. Besides, the GI50 in [9] and in test [10] was > 100 µM each time. Further, the TGI in test [1], in [2], in test [3], in [5], in test [6] and in [8] was > 100 µM in each case. For the same molecule, the TGI in test [9] and in [10] was > 100 µM in each case.
Regarding `COc1ccc(C2CC(=O)Nc3c2c(C)nn3-c2nc3ccccc3[nH]2)cc1` (stereo not given), the GI50 was 2.72 µM in test [2]; 1700 nM in test [3]; 2.9 µM in [4]; 2580 nM in [5]; 3.19 µM in test [6]; 3.92 µM in [7]. Besides, the GI50 is 2.22 µM in [8], 3.33 µM in test [9] and 2.39 µM in test [10]. Besides, the TGI in [2] was 7.09 µM; in test [3], 4.19 µM; in test [4], > 35500 nM; in test [5] it was 7.9 µM; in test [6], 17.7 µM; in test [7], > 55.9 µM. Besides, the values for the TGI in test [8], in test [9] and in test [10] were 8.04 µM, 20 µM and 5.89 µM, respectively.
`COc1ccc(/C=C/C(=O)c2ccc(Nc3ncnc4ccccc34)cc2)cc1OC`: the GI50 in test [1] was 13.9 µM; in [2] it was 3.45 µM; in test [3], 6250 nM; in test [5], 3530 nM; in test [6], 15.3 µM; in [7], 13.7 µM. The figures for the GI50 in test [8], in test [9] and in test [10] were 13.8 µM, 3.22 µM and 13 µM, respectively. For the same molecule, the TGI was > 100 µM in [1]; > 100 µM in test [2]; > 100 µM in test [3]; 31.9 µM in [5]; > 100 µM in [6]; 93.5 µM in test [7]. Moreover, the TGI was > 100 µM in test [8], 32 µM in test [9] and > 100 µM in test [10].
